The record followed here is US20260242391A1 (priority 2023, published 2026).

A short description of one data set: in vitro. The settings on record: human.
The subject of a further data set is HL-60. Put plainly: HL-60 differentiation potency. It is filed as cell-based. The settings on record: Homo sapiens.

For `C[C@H]1[C@@H](OCC(=O)N2C[C@@H](O)C[C@H]2C(=O)O)O[C@@H]2O[C@@]3(C)CC[C@H]4[C@H](C)CC[C@@H]1[C@@]24OO3` [Compound 160, (2S,4S)-4-hydroxy-1-(2-(((3R,5aS,6R,8aS, 9R,10S,12R, 12aR)-3,6,9-trimethyldeca-hydro-12H-3,12-epoxy[1,2]dioxepino[4,3-i]isochromen-10-yl)oxy)acetyl) pyrrolidine-2-carboxylic acid], in the data set “in vitro”, the IC50 is greater than 20000 nM. In the data set on HL-60, this compound yielded a half-maximal effective concentration (EC50) greater than 20000 nM.

As to `C[C@H]1[C@@H](OCC(=O)N2CC[C@@H](C(=O)O)C2)O[C@@H]2O[C@@]3(C)CC[C@H]4[C@H](C)CC[C@@H]1[C@@]24OO3` [Compound 161, (R)-1-(2-(((3R,5aS,6R,8aS, 9R,10S,12R, 12aR)-3,6,9-trimethyldeca-hydro-12H-3,12-epoxy[1,2]dioxepino[4,3-i]isochromen-10-yl)oxy)acetyl) pyrrolidine-3-carboxylic acid], the IC50 in “in vitro” was greater than 20000 nM. The EC50 in the data set on HL-60 is greater than 20000 nM.

Regarding `C[C@H]1[C@H](OCC(=O)N2C[C@H]3[C@@H]([C@H]2C(=O)O)C3(C)C)O[C@@H]2O[C@@]3(C)CC[C@H]4[C@H](C)CC[C@@H]1[C@@]24OO3` [Compound 162, (1R,2S,5S)-6,6-dimethyl-3-(2-(((3R,5aS,6R,8aS, 9R,10R,12R, 12aR)-3,6,9-trimethyldeca-hydro-12H-3,12-epoxy[1,2]dioxepino[4,3-i]isochromen-10-yl)oxy)acetyl)-3-azabicyclo[3.1.0] hexane-2-carboxylic acid], the IC50 in the data set “in vitro” is greater than 20000 nM. The EC50 with HL-60 came out at 5750 nM.

As for `C[C@H]1[C@H](OCC(=O)N2CC[C@@H](C(=O)O)C2)O[C@@H]2O[C@@]3(C)CC[C@H]4[C@H](C)CC[C@@H]1[C@@]24OO3` [Compound 163, (R)-1-(2-(((3R,5aS,6R,8aS, 9R,10R,12R, 12aR)-3,6,9-trimethyldeca-hydro-12H-3,12-epoxy[1,2]dioxepino[4,3-i]isochromen-10-yl)oxy)acetyl) pyrrolidine-3-carboxylic acid], the IC50 in “in vitro” was greater than 20000 nM. The compound also came in with an EC50 in the data set on HL-60 greater than 20000 nM.

Take `C[C@H]1[C@H](OCC(=O)N2CCC(C(=O)O)CC2)O[C@@H]2O[C@@]3(C)CC[C@H]4[C@H](C)CC[C@@H]1[C@@]24OO3` [Compound 164, 1-(2-(((3R,5aS,6R,8aS, 9R,10R,12R, 12aR)-3,6,9-trimethyldeca-hydro-12H-3,12-epoxy[1,2]dioxepino[4,3-i]isochromen-10-yl)oxy)acetyl) piperidine-4-carboxylic acid]: in “in vitro”, the IC50 was greater than 20000 nM. The EC50 in the data set with HL-60 was greater than 20000 nM.

The compound `C[C@H]1[C@@H](OCC#Cc2ccc(C(=O)O)cc2F)O[C@@H]2O[C@@]3(C)CC[C@H]4[C@H](C)CC[C@@H]1[C@@]24OO3` [Compound 165, 3-fluoro-4-(3-(((3R,5aS,6R,8aS, 9R,10S,12R, 12aR)-3,6,9-trimethyldeca-hydro-12H-3,12-epoxy[1,2]dioxepino[4,3-i]isochromen-10-yl)oxy)prop-1-yn-1-yl) benzoic acid] displayed an IC50 in “in vitro” of 300 nM. For the same compound, in the data set with HL-60, it took 79.5 nM to reach a half-maximal effect (EC50).

`C[C@H]1[C@H](OCC#Cc2ccc(C(=O)O)cc2F)O[C@@H]2O[C@@]3(C)CC[C@H]4[C@H](C)CC[C@@H]1[C@@]24OO3` [Compound 166, 3-fluoro-4-(3-(((3R,5aS,6R,8aS, 9R,10R,12R, 12aR)-3,6,9-trimethyldeca-hydro-12H-3,12-epoxy[1,2]dioxepino[4,3-i]isochromen-10-yl)oxy)prop-1-yn-1-yl)benzoic acid] returned an IC50 in “in vitro” of 1800 nM. This compound registered an EC50 with HL-60 of 66.9 nM.

Compound `C[C@H]1[C@@H](OCc2cc(C(=O)O)ccc2Cl)O[C@@H]2O[C@@]3(C)CC[C@H]4[C@H](C)CC[C@@H]1[C@@]24OO3` [Compound 167, 4-chloro-3-((((3R,5aS,6R,8aS, 9R,10S,12R, 12aR)-3,6,9-trimethyldeca-hydro-12H-3,12-epoxy[1,2]dioxepino[4,3-i]isochromen-10-yl)oxy)methyl) benzoic acid] showed an IC50 in the data set “in vitro” of 10500 nM. Besides, in the data set on HL-60, the half-maximal effective concentration (EC50) came to 132 nM.

Regarding `C[C@H]1[C@H](OCc2cc(C(=O)O)ccc2Cl)O[C@@H]2O[C@@]3(C)CC[C@H]4[C@H](C)CC[C@@H]1[C@@]24OO3` [Compound 168, 4-chloro-3-((((3R,5aS,6R,8aS, 9R,10R,12R, 12aR)-3,6,9-trimethyldeca-hydro-12H-3,12-epoxy[1,2]dioxepino[4,3-i]isochromen-10-yl)oxy)methyl) benzoic acid], in “in vitro”, half-maximal inhibition (IC50) required 6500 nM. In the data set on HL-60, this compound came in with an EC50 of 45.3 nM.

On to `C[C@H]1[C@@H](OCc2ccc(B(O)O)cc2)O[C@@H]2O[C@@]3(C)CC[C@H]4[C@H](C)CC[C@@H]1[C@@]24OO3` [Compound 169, (4-((((3R,5aS,6R,8aS, 9R,10S,12R, 12aR)-3,6,9-trimethyldeca-hydro-12H-3,12-epoxy[1,2]dioxepino[4,3-i]isochromen-10-yl)oxy)methyl)phenyl)boronic acid], for which the IC50 in “in vitro” is 270 nM. Besides, the concentration for a half-maximal effect (EC50) in the data set on HL-60 was 128 nM.

`C[C@H]1[C@@H](Oc2ccc(C(F)(F)C(=O)O)cc2)O[C@@H]2O[C@@]3(C)CC[C@H]4[C@H](C)CC[C@@H]1[C@@]24OO3` [Compound 171, 2,2-difluoro-2-(4-(((3R,5aS,6R,8aS, 9R,10S,12R, 12aR)-3,6,9-trimethyldeca-hydro-12H-3,12-epoxy[1,2]dioxepino[4,3-i]isochromen-10-yl)oxy)phenyl) acetic acid] returned an IC50 in the data set “in vitro” greater than 20000 nM. The compound further had an EC50 with HL-60 of 7070 nM.

Compound `C[C@H]1[C@@H](OCC(C(=O)O)c2ccccc2)O[C@@H]2O[C@@]3(C)CC[C@H]4[C@H](C)CC[C@@H]1[C@@]24OO3` (stereo partly drawn) [Compound 172, 2-phenyl-3-(((3R,5aS,6R,8aS, 9R,10S,12R, 12aR)-3,6,9-trimethyldeca-hydro-12H-3,12-epoxy[1,2]dioxepino[4,3-i]isochromen-10-yl)oxy) propanic acid] gave a 50% inhibitory concentration (IC50) in “in vitro” greater than 20000 nM. The compound also yielded an EC50 in the data set on HL-60 of 273 nM.

On to `C[C@H]1[C@H](OC[C@H]2CCC[C@@H](C(=O)O)C2)O[C@@H]2O[C@@]3(C)CC[C@H]4[C@H](C)CC[C@@H]1[C@@]24OO3` [Compound 173, (1R,3S)-3-((((3R,5aS,6R,8aS, 9R,10R,12R, 12aR)-3,6,9-trimethyldeca-hydro-12H-3,12-epoxy[1,2]dioxepino[4,3-i]isochromen-10-yl)oxy)methyl) cyclohexane-1-carboxylic acid], for which the IC50 in “in vitro” is greater than 20000 nM. Besides, the EC50 in the data set on HL-60 amounted to 170 nM.

Turning to `C[C@H]1[C@H](OCCCc2ccc(C(=O)O)cc2F)O[C@@H]2O[C@@]3(C)CC[C@H]4[C@H](C)CC[C@@H]1[C@@]24OO3` [Compound 174, 3-fluoro-4-(3-(((3R,5aS,6R,8aS, 9R,10R,12R, 12aR)-3,6,9-trimethyldeca-hydro-12H-3,12-epoxy[1,2]dioxepino[4,3-i]isochromen-10-yl)oxy)propyl) benzoic acid], in “in vitro”, half-maximal inhibition (IC50) was put at 7000 nM. This compound also came in with an EC50 with HL-60 of 111 nM.

In the data set “in vitro”, `C[C@H]1[C@@H](Oc2ccc(C3CC(C(=O)O)C3)cc2)O[C@@H]2O[C@@]3(C)CC[C@H]4[C@H](C)CC[C@@H]1[C@@]24OO3` (stereo partly drawn) [Compound 175, 3-(4-(((3R,5aS,6R,8aS, 9R,10S,12R, 12aR)-3,6,9-trimethyldeca-hydro-12H-3,12-epoxy[1,2]dioxepino[4,3-i]isochromen-10-yl)oxy)phenyl) cyclobutane-1-carboxylic acid] came in with an IC50 of 1500 nM. This compound also registered an EC50 with HL-60 of 58.1 nM.

In turn, `C[C@H]1[C@H](OCc2ccc(B(O)O)cc2)O[C@@H]2O[C@@]3(C)CC[C@H]4[C@H](C)CC[C@@H]1[C@@]24OO3` [Compound 176, (4-((((3R,5aS,6R,8aS, 9R,10R,12R, 12aR)-3,6,9-trimethyldeca-hydro-12H-3,12-epoxy[1,2]dioxepino[4,3-i]isochromen-10-yl)oxy)methyl)phenyl)boronic acid] came in with an IC50 in the data set “in vitro” of 400 nM. The same compound registered an EC50 in the data set on HL-60 of 206 nM.

For the compound `C[C@H]1[C@@H](OCc2c(Cl)cc(C(=O)O)cc2Cl)O[C@@H]2O[C@@]3(C)CC[C@H]4[C@H](C)CC[C@@H]1[C@@]24OO3` [Compound 177, 3,5-dichloro-4-((((3R,5aS,6R,8aS, 9R,10S,12R, 12aR)-3,6,9-trimethyldeca-hydro-12H-3,12-epoxy[1,2]dioxepino[4,3-i]isochromen-10-yl)oxy)methyl) benzoic acid], the IC50 in the data set “in vitro” worked out at 660 nM. Also, the midpoint of the response with HL-60, the EC50, lay at 44.5 nM.

In the case of `C[C@H]1[C@@H](OCc2cc(Cl)cc(C(=O)O)c2)O[C@@H]2O[C@@]3(C)CC[C@H]4[C@H](C)CC[C@@H]1[C@@]24OO3` [Compound 178, 3-chloro-5-((((3R,5aS,6R,8aS, 9R,10S,12R, 12aR)-3,6,9-trimethyldeca-hydro-12H-3,12-epoxy[1,2]dioxepino[4,3-i]isochromen-10-yl)oxy)methyl) benzoic acid], the half-maximal inhibitory concentration (IC50) in “in vitro” was 4000 nM. Also, the EC50 in the data set with HL-60 came to 243 nM.

In the data set “in vitro”, `CC(O[C@H]1O[C@@H]2O[C@@]3(C)CC[C@H]4[C@H](C)CC[C@@H]([C@H]1C)[C@@]24OO3)c1ccc(C(=O)O)cc1Cl` (stereo partly drawn) [Compound 179, 3-chloro-4-(1-(((3R,5aS,6R,8aS, 9R,10S,12R, 12aR)-3,6,9-trimethyldeca-hydro-12H-3,12-epoxy[1,2]dioxepino[4,3-i]isochromen-10-yl)oxy)ethyl) benzoic acid] gave an IC50 of 1500 nM. In the data set with HL-60, this compound returned an EC50 of 65.8 nM.

Compound `C[C@H]1[C@@H](Oc2ccc(C(C)(C)C(=O)O)cc2Cl)O[C@@H]2O[C@@]3(C)CC[C@H]4[C@H](C)CC[C@@H]1[C@@]24OO3` [Compound 180, 2-(3-chloro-4-(((3R,5aS,6R,8aS, 9R,10S,12R, 12aR)-3,6,9-trimethyldeca-hydro-12H-3,12-epoxy[1,2]dioxepino[4,3-i]isochromen-10-yl)oxy)phenyl)-2-methylpropanoic acid] came in with a 50% inhibitory concentration (IC50) in “in vitro” of 160 nM. The compound further registered an EC50 with HL-60 of 40.2 nM.

In the data set “in vitro”, `C[C@H]1[C@@H](OCC2CC3C(C2)C3C(=O)O)O[C@@H]2O[C@@]3(C)CC[C@H]4[C@H](C)CC[C@@H]1[C@@]24OO3` (stereo partly drawn) [Compound 181, 3-((((3R,5aS,6R,8aS, 9R,10S,12R, 12aR)-3,6,9-trimethyldeca-hydro-12H-3,12-epoxy[1,2]dioxepino[4,3-i]isochromen-10-yl)oxy)methyl) bicyclo[3.1.0] hexane-6-carboxylic acid] yielded an IC50 greater than 20000 nM. Besides, the EC50 in the data set with HL-60 was found to be 140 nM.

The IC50 is the concentration at which inhibition is half-maximal. As usually defined, the EC50 is the concentration needed to bring the measured effect to its halfway point. A higher EC50 goes with lower potency in that assay.
